Test results reported in patent US10238677B2, “Treatment of filarial diseases” (AbbVie Inc., priority 2015, dated 2019).
Where “and” joins values, the source holds several entries; their conditions need not be identical. Identical values can stand only once.

Experiments:
[1] = test system: Wolbachia in Brugia malayi larvae; test: Larval Brugia malayi mouse model, Wolbachia wsp qPCR; type: in vivo, BALB/c IL4Rα−/− mice; conditions: vs median vehicle control
From the text: […] At 14 days post-infection, larvae were recovered from the peritoneal cavity, counted, and length measured. Genomic DNA was extracted from individual worms (10/group) and quantification of the Wolbachia surface protein (wBm-wsp) gene copy numbers performed by quantitative PCR.
Treatment dose (mg/kg) shown in parentheses and duration stated in days (d). Abbreviations: DOX (doxycycline), bid (twice daily), qd (once daily), PO (oral), […]. Data in Table 2 are expressed as a reduction in Wolbachia load in comparison to the vehicle control group.
[…] […] Treatment dose (mg/kg) shown in parentheses and duration stated in days (d). Abbreviations: DOX (doxycycline), qd (once daily).

[2] = test system: Wolbachia pipientis (Wolbachia strain wAlbB) in C6/36 Aedes albopictus cell line; test: In vitro anti-Wolbachia cell-based screening assay; conditions: Table 1A, anti-Wolbachia activity, 7 days incubation
Procedure: A C6/36 Aedes albopictus cell line infected with Wolbachia pipientis (Wolbachia strain wAlbB) derived from Aa23 A. albopictus cell line (O'Neill et al., 1997; Insect Mol Biol; Turner et al., (2006) J. Immunol. 7:1240-1249) was used to screen compounds. Cells were cultured in Leibovitz's L15 +L-glutamine supplemented with heat-inactivated Foetal Calf Serum (HI-FCS), non-essential amino acids and tryptose phosphate broth. Culture medium was filter-sterilized through a 0.2 μm filter and stored at 4° C. Compounds were provided as 10 mM stocks in DMSO, diluted to 50 μM working stock to give final concentration of 5 μM on the test plate. Concentrated stocks were frozen at −20° C.
Prior to use in the screening assay, cell cultures were sub-passaged (6 days prior) to provide ˜90% confluent cells on Day 0 of screening assay. On Day 0 (assay set-up), the medium was removed from the stock culture flask and replaced with fresh medium. The cells were detached by scraping and cell density was calculated using an automated cell counter. The cells were then diluted at working density and aliquoted at 90 μl to each well of a Cell Carrier 384 well plate (Perkin Elmer). Cell plates were incubated at 26° C.
Control solution (DMSO-medium) was dispensed at 10 μl per well for “untreated” wells. Test solution (Drug-DMSO) was also dispensed at 10 μl (from working plate) per well for “treated” wells. The plates were incubated at 26° C., inside plastic wallet in incubator, for 7 days.
On Day 7, 25 μl of staining medium/dye (SYTO 11, Life Technologies) was added to each sample well and allowed to stain for 15 minutes in the dark. All the medium was removed from each sample well without disturbing the cells and replaced with 100 μl of fresh medium. Plates were imaged on the Operetta High Content Imaging system (Perkin Elmer) and analyzed using texture analysis through Harmony software (Perkin Elmer). The cell-based screen and analysis are described in detail in Clare et al. (2014) J Biomol Screen.

[3] = test system: Wolbachia in Litomosoides sigmodontis larvae; test: Larval Litomosoides sigmodontis mouse model, Wolbachia ftsZ qPCR; type: in vivo, BALB/c mice; conditions: vs vehicle control
Procedure: In this mouse model of filariasis (Hoerauf A, et al. (1999) Journal of Clinical Investigation 103(1):11-18), BALB/c mice (6-8 week old) were infected via natural larvae transmission, through the bite of infected tropical mites (Ornithonyssus bacoti), and treatment started on the day following infection. Anti-Wolbachia efficacy was measured by quantitative PCR analysis, using genomic DNA extracted from larvae, of the Wolbachia ftsZ gene, and expressed as a reduction in Wolbachia load in comparison to the vehicle control group. […] Thus, tylosin A effectively cleared Wolbachia from filarial larvae (Litomosoides sigmodontis) in a mouse model of filariasis when delivered parenterally (intraperitoneally), to a similar extent to doxycycline, with a shorter dosing regimen.

[4] = test system: Wolbachia in adult Brugia malayi; test: Adult Brugia malayi mouse model, Wolbachia wsp qPCR; type: in vivo, BALB/c CCR3−/− mice
From the text: In an adult Brugia malayi mouse model treatment groups (BALB/c CCR3−/−mice, 6-8 week old) received compounds by oral delivery for 7-28 days beginning at 6-10 weeks post-infection intraperitoneal with Brugia malayi third-stage larvae. Following treatment, at 12 weeks post-infection, adult worms and released microfilariae were recovered from the peritoneal cavity, counted and staged for sex. Genomic DNA was extracted from individual adult worms (10/group) and quantification of the Wolbachia surface protein (wBm-wsp) performed by quantitative PCR.
Treatment dose (mg/kg/day) shown in parentheses and duration stated in days (d). MIN (minocycline), bid (twice daily), qd (once daily). Data in Table 4 are expressed as a reduction in Wolbachia load in comparison to the vehicle control group.
Treatment dose (mg/kg/day) shown in parentheses and duration stated in days (d). MIN (minocycline), bid (twice daily), qd (once daily).

[5] = test system: Brugia malayi microfilariae; test: Adult Brugia malayi jird model, motile peritoneal microfilariae load; type: in vivo, Mongolian jirds (Meriones unguiculatus); conditions: Table 7, 200 mg/kg qd oral 21 d
Procedure: (§1) In this model of adult filarial (macrofilariae) infection, Mongolian jirds (Meriones unguiculatus) were infected intraperitoneally with Brugia malayi third-stage larvae (Ash and Riley, (1970) J Parasitol. 56(5):969-73). Infected jirds were treated at +12-20 weeks post-infection for periods up to 6 weeks. Jirds were necropsied for worm recoveries. Adult worms were staged for sex and motile released microfilariae were counted. Genomic DNA was extracted from individual worms (10/group) and quantification of the Wolbachia surface protein (wBm-wsp) and Brugia malayi glutathione S-transferase (Bm-gst) gene copy numbers performed by quantitative PCR, and expressed as a reduction in Wolbachia load in comparison to the vehicle control group.
(§2) Treatment dose (mg/kg/day) shown in parentheses and duration stated in days (d). DOX (doxycycline), qd (once daily).

[6] = test system: Wolbachia in adult Brugia malayi; test: Adult Brugia malayi jird model, Wolbachia load; type: in vivo, Mongolian jirds (Meriones unguiculatus); conditions: Table 6; 200 mg/kg qd oral 21 d; vs median vehicle control
Procedure: as §1, §2

[7] = test system: Wolbachia in adult male Onchocerca ochengi; test: Adult Onchocerca ochengi mouse model, Wolbachia:gst qPCR; type: in vivo, CB.17 SCID (BALB/c congenic) mice; conditions: Table 8; 25 mg/kg bid oral 28 d; vs median vehicle control
Procedure: In this model, adult male Onchocerca ochengi (closest relative species to the human parasite causing river blindness, Onchocerca volvulus) are derived from cattle natural hosts and surgically implanted into the peritoneal cavity of CB.17 SCID (BALB/c congenic) mice under anaesthesia (Halliday et al Parasit. Vectors 2014 7:472). After 3 days following surgery, mice were treated by oral gavage for periods up to 4 weeks. Mice were necropsied for worm recoveries 6 weeks after start of treatment. Genomic DNA was extracted from individual worms (n=10/group) and quantification of the Wolbachia surface protein (wBm-wsp) and Onchocerca glutathione S-transferase (Ov-gst) gene copy numbers performed by quantitative PCR. Data is expressed as a reduction in Wolbachia:gst ratios in comparison to the vehicle control group.
Treatment dose (mg/kg/day) shown in parentheses and duration stated in days (d). DOX (doxycycline), qd (once daily) bid (twice daily).

Loa loa microfilariae = Loa loa microfilariae ex vivo counter-screen; type: cell-based; conditions: for Motility (mean % vs baseline) / Survival (%): 64 μg/ml
From the text: This ex vivo assay is used to assess direct Loa loa microfilaricidal effects of drug compounds. Bloodborne Loa loa microfilariae are generated from experimental infections of splenectomised baboons with the human stain of L. loa (Orihel et al, Trop Med Parasitol, 1985. 36: p.215). L. loa microfilariae were purified from venous blood samples by Percoll gradient centrifugation. Loa loa microfilariae were adjusted to a density of 0.5×10^4/ml and plated into 96-well plates in Dulbecco's Modified Eagle Medium (DMEM) containing 10% Foetal Calf Serum (FCS). Triplicate wells of Loa loa microfilariae were exposed to either ivermectin (64 μg/ml: positive control), compound 10 (0.018 and 0.18 μg/ml), compound 19 (0.11 and 1.11 μg/ml) or 0.1% DMSO vehicle control. Dose levels of compound 10 and compound 19 were matched to predictive Cmax and 10× Cmax human plasma concentrations based on PK-PD modeling. L. loa were cultured at 37° C./5% CO2 for +7 days and monitored daily with a semi-quantitative score applied to individual mf motility.

[8] = Table 2, 50 mg/kg qd PO 14 d, 50 mg/kg

CC[C@H]1OC(=O)C[C@@H](O)[C@H](C)[C@@H](O[C@@H]2O[C@H](C)[C@@H](O[C@H]3C[C@@](C)(O)[C@@H](O)[C@H](C)O3)[C@H](N(C)C)[C@H]2O)[C@@H](CC=O)C[C@@H](C)C(=O)/C=C/C(C)=C/[C@@H]1CO[C@@H]1O[C@H](C)[C@@H](O)[C@@H](OC)[C@H]1OC [Tylosin A, 2-((4R,5S,6S,7R,9R,11E,13E,15R,16R)-6-(((2R,3R,4R,5S,6R)-5-(((2S,4R,5S,6S)-4,5-dihydroxy-4,6-dimethyltetrahydro-2H-pyran-2-yl)oxy)-4-(dimethylamino)-3-hydroxy-6-methyltetrahydro-2H-pyran-2-yl)oxy)-16-ethyl-4-hydroxy-15-((((2R,3R,4R,5R,6R)-5-hydroxy-3,4-dimethoxy-6-methyltetrahydro-2H-pyran-2-yl)oxy)methyl)-5,9,13-trimethyl-2,10-dioxooxacyclohexadeca-11,13-dien-7-yl)acetaldehyde]
% Wolbachia reduction ([1]; Table 2, 50 mg/kg qd IP 14 d, 50 mg/kg): 99.9% | % Wolbachia reduction ([1]; Table 2, 50 mg/kg qd IP 14 d, listed as TYL A, 50 mg/kg): 99.9% | % Wolbachia reduction [1, 8]: 50.4% | % Wolbachia reduction ([1]; Table 2, 50 mg/kg qd PO 14 d, listed as TYL A, 50 mg/kg): 50.4% | EC50 ([2]; C6/36, 168 h): 36 nM | EC50 [2]: 24 nM and 26 nM | Wolbachia reduction ([3]; 7 days treatment, oral dosing): 21.9% | Wolbachia reduction ([3]; 7 days treatment, parenteral (intraperitoneal) dosing): 91.7% | % Wolbachia reduction ([4]; Table 4, 50 mg/kg qd oral 14 d, vs median vehicle control): 0%

CC[C@H]1OC(=O)C[C@@H](O)[C@H](C)[C@@H](O[C@@H]2O[C@H](C)[C@@H](O)[C@H](N(C)C)[C@H]2O)[C@@H](CC=O)C[C@@H](C)C(=O)/C=C/C(C)=C/[C@@H]1CO[C@@H]1O[C@H](C)[C@@H](O)[C@@H](OC)[C@H]1OC [Tylosin B, desmycosin]
EC50 [2]: 88 nM

C[C@H]1c2cccc(O)c2C(=O)C2=C(O)[C@]3(O)C(=O)C(C(N)=O)=C(O)[C@@H](N(C)C)[C@@H]3[C@@H](O)[C@@H]21 [doxycycline]
% Wolbachia reduction ([1]; Table 2, 50 mg/kg qd PO 7 d): 88.7% | % Wolbachia reduction [1, 8]: 98.3% | % Wolbachia reduction ([1]; Table 2, 50 mg/kg qd PO 14 d, listed as DOX, 50 mg/kg): 98.3% | % Wolbachia reduction ([1]; Table 3, 50 mg/kg qd oral 7 d, 50 mg/kg): 77.4% | % Wolbachia reduction ([1]; Table 3, 50 mg/kg qd oral 7 d, listed as DOX, 50 mg/kg): 77.4% | % Wolbachia reduction ([1]; Table 3, 50 mg/kg qd oral 14 d, 50 mg/kg): 99.3% | % Wolbachia reduction ([1]; Table 3, 50 mg/kg qd oral 14 d, listed as DOX, 50 mg/kg): 99.3% | Wolbachia reduction ([3]; 50 mg/kg/day for 14 days): 99.9% | % reduction in microfilariae [5]: 90.5% | % Wolbachia reduction [6]: 99.1% | % Wolbachia reduction [7]: 99.8%

CN(C)c1ccc(O)c2c1C[C@H]1C[C@H]3[C@H](N(C)C)C(O)=C(C(N)=O)C(=O)[C@@]3(O)C(O)=C1C2=O [minocycline]
% Wolbachia reduction [7]: 99.7% | % Wolbachia reduction ([4]; Table 4, 25 mg/kg bid oral 28 d, vs median vehicle control, 25 mg/kg): 83.8% | % Wolbachia reduction ([4]; Table 4, 25 mg/kg bid oral 28 d, vs median vehicle control, listed as MIN, 25 mg/kg): 83.8% | % Wolbachia reduction ([4]; Table 5 dose escalation study, 25 mg/kg bid oral 28 d): 95.5%

ivermectin
Motility (mean % vs baseline) (Loa loa microfilariae; exposure time 2 days): 5.71% | Survival (%) (Loa loa microfilariae; exposure time 2 days): 100% | Motility (mean % vs baseline) (Loa loa microfilariae; exposure time 7 days): 0% | Survival (%) (Loa loa microfilariae; exposure time 7 days): 0% | Effect on Loa loa microfilariae motility (in words) (Loa loa microfilariae; ex vivo culture, period of 7 days): completely immotile | Reduction in motility (Loa loa microfilariae; in +2 days): > 90%
